From US9682013B2, “Pharmaceutical compositions comprising human antibodies to PCSK9” (SANOFI BIOTECHNOLOGY, priority 2011, dated 2017)

Key:
[1] = system: male Syrian hamster; assay: Study 4: cholesterol lowering effect of 316P alone and with atorvastatin in hamster; type: in vivo; conditions: treatment alone up to the maximal tolerated dose
Description: This is an animal study on the cholesterol lowering effect of 316P, a fully human PCSK9 blocking monoclonal antibody in male Syrian hamster
The aim of this study was to investigate the effect of 316P, a human monoclonal antibody to human PCSK9, alone and in combination with statins on expression of the hepatic LDLR and the resulting effects on serum LDL-C.
The maximal effect on LDL-C (−17/−27/−60%) was seen within 7 days. PK data of 316P are in line with the dose-dependent effect on LDL-C.

[2] = system: patients with an elevated LDL-C (≧100 mg/dL or 2.59 mmol/L) treated with a stable dose of atorvastatin 10 mg; assay: Study 2: randomized, double-blind, placebo-controlled 8-week study of 316P 150 mg E2W with atorvastatin 10 mg or 80 mg; type: in vivo, human; conditions: placebo+atorvastatin 80 mg group, previously on atorvastatin 10 mg
Procedure: This was a randomized, double-blind, 3-parallel-groups, placebo-controlled, fixed dose/dose regimen, multicenter, 8-week study in subjects with primary hypercholesterolemia, aged 18-75 years. One aim of this study was to assess the efficacy and safety of 316P in patients with an elevated LDL-C (≧100 mg/dL or 2.59 mmol/L) treated with a stable dose of atorvastatin 10 mg.
During the screening period, patients had to be stabilized to atorvastatin 10 mg for at least 6 weeks, if they are not already. Then, after 1 additional screening week, patients were centrally randomized via IVRS/IWRS in a 1:1:1 ratio to one of the 3 treatment groups (placebo for 316P+atorvastatin 80 mg, 316P 150 mg E2W+atorvastatin 80 mg, 316P 150 mg E2W+atorvastatin 10 mg) and treated in a double-blind manner for approximately 8 weeks. 316P was administered every 2 weeks on site trough subcutaneous injection and atorvastatin was administered orally once daily in the evening at home. The double-blind treatment period was then followed by an 8-week follow-up period.
Inclusion criteria: • Patients (patients receiving a lipid lowering treatment other than atorvastatin/or not at stable dose of atorvastatin 10 mg for at least 6 weeks prior to screening period, or drug naive patients) with primary hypercholesterolemia likely to have low-density lipoprotein cholesterol (LDL-C)≧100 mg/dL (≧2.59 mmol/L) at the end of the run-in period on atorvastatin therapy (Week-1). • OR • Patients with primary hypercholesterolemia treated with stable dose of atorvastatin 10 mg for at least 6 weeks prior to screening period and likely to have low-density lipoprotein cholesterol (LDL-C)≧100 mg/dL (≧2.59 mmol/L) at the screening visit (Week-1).
Duration of Study Period Per Subject:
• Arm 1: The first group of patients receives one subcutaneous injection of 1 mL of antibody 316P, administered in the abdomen every two weeks, with a dose regimen at 150 mg, for a double-blind treatment period of 8 weeks; • Atorvastatin is administered once per day at a stable dose of 10 mg as background therapy. • Atorvastatin is administered at a dose of 80 mg once during the double-blind treatment period of 8 weeks. • Arm 2: The second group of patients receives one subcutaneous injection of 1 mL of a placebo solution, administered in the abdomen every two weeks, with a dose regimen at 150 mg, for a double-blind treatment period of 8 weeks; • Atorvastatin is administered once per day at a stable dose of 10 mg as background therapy. • Atorvastatin is administered at a dose of 80 mg (2 over-encapsulated atorvastatin 40 mg tablets) once during the double-blind treatment period of 8 weeks. • Arm 3: The third group of patients receives one subcutaneous injection of 1 mL of antibody 316P, administered in the abdomen every two weeks, with a dose regimen at 150 mg, for a double-blind treatment period of 8 weeks; • Atorvastatin is administered once per day at a stable dose of 10 mg as background therapy. • Atorvastatin is administered at a dose of 10 mg (1 over-encapsulated atorvastatin 10 mg tablet+1 matching placebo tablet) once during the double-blind treatment period of 8 weeks. Primary and Key Secondary Endpoints Primary Endpoints
The primary efficacy variable is the percent change in calculated LDL-C from baseline to Week 8, which is defined as: 100×(calculated LDL-C value at Week 8-calculated LDL-C value at baseline)/calculated LDL-C value at baseline.
In case of unavailable calculated LDL-C value at Week 8 as defined above, then the last calculated LDL-C value measured during the efficacy period and before the Week 8 time window was used to impute the missing Week 8 calculated LDL-C value (Last Observation Carried Forward [LOCF] procedure). […]

[3] = system: patients with genotype-confirmed hoFH; conditions: ezetimibe 10 mg/day added to maximal dose of statins; cited from earlier work

| Compound | LDL-C [1] | hepatic LDLR expression [1] | median reduction from baseline in LDL-C at 8 weeks [2] | total reduction of LDL-C levels [3] |
| --- | --- | --- | --- | --- |
| CC(C)c1c(C(=O)Nc2ccccc2)c(-c2ccccc2)c(-c2ccc(F)cc2)n1CC[C@@H](O)C[C@@H](O)CC(=O)O [atorvastatin, reference compound] | did not decrease LDL-C | no effect | −26.9% | – |
| O=C1[C@H](CC[C@H](O)c2ccc(F)cc2)[C@@H](c2ccc(O)cc2)N1c1ccc(F)cc1 [ezetimibe] | – | – | – | 27% |
